Here are results for 8 molecules from US20250268877A1 (BIOGEN MA INC., priority 2020, published 2025).

In one series the target is IRAK4 (Homo sapiens (Human), UniProt Q9NWZ3). Kind of series: IRAK4 2-hour 1 mM ATP Biochemical Assay (MesoScale Detection format). To be noted: 100 pM IRAK4, read-out: IRAK4 IC50.
For series [1], the target named is Human MDR1 transfected MDCK cells (Homo sapiens (Human), UniProt P08183). Kind of series: MDR1-MDCK assay (apparent permeability, efflux ratio). The series is classed as in vitro ADME. To be noted: 1 μM, 120 minutes.
Sequence of Human MDR1 transfected MDCK cells (P08183 whole entry): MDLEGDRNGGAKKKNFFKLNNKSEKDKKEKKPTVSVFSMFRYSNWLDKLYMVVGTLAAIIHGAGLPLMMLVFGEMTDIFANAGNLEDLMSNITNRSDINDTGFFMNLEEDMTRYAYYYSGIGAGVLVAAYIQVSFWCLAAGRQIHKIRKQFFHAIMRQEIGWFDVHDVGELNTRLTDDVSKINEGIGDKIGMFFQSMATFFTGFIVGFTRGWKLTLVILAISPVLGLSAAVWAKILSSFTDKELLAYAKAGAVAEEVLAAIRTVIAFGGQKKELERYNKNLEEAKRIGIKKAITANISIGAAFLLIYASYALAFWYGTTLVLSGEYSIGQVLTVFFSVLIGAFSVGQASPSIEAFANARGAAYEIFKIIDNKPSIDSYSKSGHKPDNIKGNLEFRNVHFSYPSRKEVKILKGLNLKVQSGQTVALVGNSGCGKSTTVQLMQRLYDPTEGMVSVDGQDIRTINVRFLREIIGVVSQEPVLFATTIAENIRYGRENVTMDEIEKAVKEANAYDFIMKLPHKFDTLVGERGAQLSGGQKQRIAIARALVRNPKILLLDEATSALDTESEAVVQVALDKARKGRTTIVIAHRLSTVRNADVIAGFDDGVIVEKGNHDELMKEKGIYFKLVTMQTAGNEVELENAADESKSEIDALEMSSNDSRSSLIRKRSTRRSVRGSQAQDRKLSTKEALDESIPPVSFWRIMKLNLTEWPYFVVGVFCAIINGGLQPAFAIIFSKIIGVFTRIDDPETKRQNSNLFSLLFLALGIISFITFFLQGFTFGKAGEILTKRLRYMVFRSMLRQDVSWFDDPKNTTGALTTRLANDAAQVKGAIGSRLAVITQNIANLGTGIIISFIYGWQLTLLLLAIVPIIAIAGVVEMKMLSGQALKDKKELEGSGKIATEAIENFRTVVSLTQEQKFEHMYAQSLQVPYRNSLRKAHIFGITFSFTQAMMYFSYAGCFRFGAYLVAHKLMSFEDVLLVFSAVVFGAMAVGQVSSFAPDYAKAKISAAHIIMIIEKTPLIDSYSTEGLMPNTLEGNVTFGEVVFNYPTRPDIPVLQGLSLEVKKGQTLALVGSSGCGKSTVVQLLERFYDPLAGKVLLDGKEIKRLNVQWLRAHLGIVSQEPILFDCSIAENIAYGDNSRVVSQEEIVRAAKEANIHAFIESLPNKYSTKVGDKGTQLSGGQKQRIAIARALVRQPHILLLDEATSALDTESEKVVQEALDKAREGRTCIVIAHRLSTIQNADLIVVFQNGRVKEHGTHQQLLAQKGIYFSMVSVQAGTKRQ
Series [2] in a line: Kinetic solubility assay (CLND), potassium phosphate buffer pH 6.8. To be noted: pH 6.8, 2% DMSO, 24 hours at ambient temperature; for solubility at 24 h: potassium phosphate buffer, pH 6.8, aqueous buffer, kinetic from dmso stock. The series is classed as physicochemical.
Description: • Inject filtrates into the nitrogen detector for quantification on Analiza's Automated Discovery Workstation (ADW). • Solubility results generated in μg/mL
Another series addresses MDR1 (Homo sapiens (Human), UniProt P08183). Kind of series: MDR1-MDCK assay (apparent permeability, efflux ratio). The series is classed as in vitro ADME. Particulars: human, MDCK-MDR1, 1 μM, read-out: MDR1-MDCK_Efflux Ratio.
The nature of series [3]: Kpuu assay (in vivo brain-to-plasma partition, unbound). Particulars: brain (unbound) versus plasma (unbound); intravenous infusion 4 to 24 h; unbound drug partition coefficient; read-out: Brain Kpu,u.
Protocol: For the brain-to-plasma partition coefficient (Kp) evaluation, a dosing solution was intravenously infused into animals at a constant flow rate for 4 to 24 h. Blood samples were serially collected during infusion, and CSF and brain samples were harvested at the end of infusion.
Tissue samples were typically homogenized in phosphate buffer saline (PBS) using a bead ruptor.
CSF samples were typically diluted with 8% BSA in PBS to prevent from non-specific binding. Artificial CSF (aCSF) is used as the surrogate matrix.
Calibration curves were prepared by spiking the analyte(s) into blank matrices, which were processed together with plasma, tissue homogenate and/or CSF samples by protein precipitation using a proper organic solvent (e.g. acetonitrile and methanol) containing generic analogue internal standards (e.g. verapamil, chrysin and glyburide). Matrix matching was used when analyzing multiple matrices in the same run. Samples above the upper limit of quantitation (ULOQ) needed to be diluted into the calibration range using either a pre-extraction or post-extraction dilution approach.
Processed samples were analyzed by LC-MS/MS using a proper method performing within the acceptable sensitivity, selectivity, precision and accuracy. For an analytical run to be accepted, over 75% of the calibration standards in the dual calibration curves needed to be within 20% of the nominal concentrations.
Brain concentrations were compared against plasma concentrations at the corresponding timepoint for the calculation of partition coefficient (Kp).
Unbound drug partition coefficient (Kpuu), defined as the ratio of unbound drug partition across the blood-brain barrier, was calculated using the equation below:
[formula] • Cb: measured total drug concentration in brain • Fub: unbound drug fraction in brain • Cp: measured total drug concentration in plasma • Fup: unbound drug fraction in plasma Compound- or study-specific PK analysis that deviates from the typical procedure might be used when necessary, which will be documented in a study specific protocol included in the data upload.
Mix thoroughly. • This spiked plasma solution is shown in FIG. 1. • 3) Prepare a chilled ‘crash’ solution of internal standard in a solvent solution. • Pipette 200 μL of 25 ng/mL solution of internal standard, CPDPX (8-Cyclopentyl-1,3-dipropylxanthine, Sigma-Aldrich, C101) in 1:1 acetonitrile/methanol solvent solution into a 1 mL 96-well plate. • Chill on ice or refrigerate at 4° C. • This solution becomes the ‘Crash’ plate in FIG. 1. • 4) From remaining spiked plasma, remove 50 μL (T=0 h) of each plasma sample and place into a crash plate which contains 200 μL. To matrix match, add 50 μL of blank buffer to the crashed sample (similar to PPB samples). […] Mix crash plate thoroughly. • From remaining spiked plasma, remove 50 μL (T=4 h) of each plasma sample and place into a crash plate. To matrix match, add 50 μL of blank buffer to the crashed sample (similar to the protein binding samples). • Centrifuge crash plate at 3900 rpm for 10 minutes at 4° C.
% Free=(PAR of buffer side/PAR of plasma side)*100 • PAR—Peak area ratio (PAR)
Fu=% Free/100 • Fu=fraction unbound
Series [4] addresses catalytical domain of human IRAK4 (a.a. 163-460) (Homo sapiens (Human), UniProt Q9NWZ3). Briefly: IRAK4 SPR binding assay. To be noted: single-cycle, 1:1 interaction model. Background: In SPR one partner is held on a chip, and binding of the other changes the refractive index at the surface.
Protocol: IRAK4 SPR. IRAK4 SPR was set up on Biacore T200 or S200 by using Biotin CAPture kit (Cytiva). In brief, purified IRAK4 in capture buffer (25 mM Hepes, 150 mM NaCl, 1 mM TCEP, pH7.4) was captured onto a CAP sensor surface via the interaction of biotin to streptavidin Typical capture level is between 1,000 RU to 2,000 RU, Compound binding kinetics to IRAK4 was examined with running buffer (25 mM Hepes, 150 mM NaCl, 1 mM TCEP, 2% DMSO, pH7.4). Serially diluted compounds were injected at 50 μl/min in single-cycle for 60-s association of each injection followed by 360-s dissociation at the end. The data was fitted to global 1:1 interaction model.

≈ marks a conversion by molar mass, not a printed value.

Sequence of catalytical domain of human IRAK4 (a.a. 163-460) (Q9NWZ3 163-460): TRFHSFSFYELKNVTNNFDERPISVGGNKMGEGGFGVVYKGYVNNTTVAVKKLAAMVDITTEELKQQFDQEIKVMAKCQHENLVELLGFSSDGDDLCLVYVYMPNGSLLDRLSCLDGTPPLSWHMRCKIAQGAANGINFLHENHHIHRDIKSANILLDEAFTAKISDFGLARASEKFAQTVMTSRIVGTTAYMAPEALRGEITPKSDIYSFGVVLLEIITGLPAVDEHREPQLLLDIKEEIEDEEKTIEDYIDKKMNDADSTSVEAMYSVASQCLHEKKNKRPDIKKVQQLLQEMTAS
Sequence of IRAK4 (Q9NWZ3 whole entry): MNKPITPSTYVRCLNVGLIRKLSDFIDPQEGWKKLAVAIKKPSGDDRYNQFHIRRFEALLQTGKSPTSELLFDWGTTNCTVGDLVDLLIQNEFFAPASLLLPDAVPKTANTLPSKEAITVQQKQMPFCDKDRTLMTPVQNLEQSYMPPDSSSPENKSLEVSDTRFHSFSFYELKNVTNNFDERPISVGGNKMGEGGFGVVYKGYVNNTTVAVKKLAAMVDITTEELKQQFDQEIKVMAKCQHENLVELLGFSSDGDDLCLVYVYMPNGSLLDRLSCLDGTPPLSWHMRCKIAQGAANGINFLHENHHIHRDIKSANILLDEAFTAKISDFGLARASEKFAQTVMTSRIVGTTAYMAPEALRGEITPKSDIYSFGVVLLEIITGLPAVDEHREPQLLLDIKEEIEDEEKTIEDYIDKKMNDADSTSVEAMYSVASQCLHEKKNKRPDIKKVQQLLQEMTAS
Sequence of MDR1 (P08183 whole entry, the tested form may be a part): as the sequence (P08183 whole entry) above

For orientation: IC50 means the concentration needed to halve the response being measured. As for `C[C@@H]1C[C@@H]1n1cccc(NC(=O)c2cc3cn([C@@]45CC[C@@H](C4)OC5)nc3nc2OC2CC2)c1=O` (single isomer, unassigned) [Example 94], the IC50 at IRAK4 stood at 600 pM. For the same molecule, the “MDR1-MDCK_Efflux Ratio” value in series [1] was found to be 2.73. The “Solubility pH 6.8” value in series [2] was found to be 14.7 ug/mL.

As a reminder, the solubility is how much of the substance goes into solution per volume. Read a high solubility as much dissolved substance. As for `CC(C)Oc1nc2nn(C34COC(C)(C3)C4)cc2cc1C(=O)Nc1cccn(C2CC2)c1=O` [Example 9, N-(1-cyclopropyl-2-oxo-1,2-dihydropyridin-3-yl)-6-isopropoxy-2-(1-methyl-2-oxabicyclo[2.1.1]hexan-4-yl)-2H-pyrazolo[3,4-b]pyridine-5-carboxamide], at IRAK4, the IC50 amounted to 300 pM. At MDR1, the efflux ratio at 120 min, 1 μM amounted to 3.26. For the same molecule, the solubility at 24 h in series [2] is 18.7 µg/mL (≈ 41.6 µM). Moreover, the Kp in series [3] worked out at 0.8. For the same molecule, in series [4], the “IRAK4 SPR binding Half Life” value came out at 1.34 h.

`CC(C)Oc1nc2nn(C34COC(CF)(C3)C4)cc2cc1C(=O)Nc1cccn(C2CC2)c1=O` [Example 10, N-(1-cyclopropyl-2-oxo-1,2-dihydropyridin-3-yl)-2-(1-(fluoromethyl)-2-oxabicyclo[2.1.1]hexan-4-yl)-6-isopropoxy-2H-pyrazolo[3,4-b]pyridine-5-carboxamide]: at IRAK4, the half-inhibitory concentration (IC50) is 200 pM. For the same molecule, the efflux ratio at 120 min, 1 μM at MDR1 is 3.4. For the same molecule, the solubility at 24 h in series [2] stood at 22.7 µg/mL (≈ 48.5 µM). In addition, the Kp in series [3] was determined as 0.6. The “IRAK4 SPR binding Half Life” value in series [4] was found to be 1.22 h.

On to `CC(C)Oc1cc2nn([C@@]34CC[C@@](C)(C3)OC4)cc2cc1C(=O)Nc1cccn([C@H]2C[C@H]2F)c1=O` [Example 50, N-(1-((1S,2R)-2-fluorocyclopropyl)-2-oxo-1,2-dihydropyridin-3-yl)-6-isopropoxy-2-((1S,4S)-1-methyl-2-oxabicyclo[2.2.1]heptan-4-yl)-2H-indazole-5-carboxamide], for which the IC50 on IRAK4 was found to be 100 pM. Further, on MDR1, the efflux ratio at 120 min, 1 μM was 2.75. In addition, the solubility at 24 h in series [2] turned out to be 40.5 µg/mL (≈ 84.3 µM). In addition, in series [3], the Kp is 0.4. Further, in series [4], the “IRAK4 SPR binding Half Life” value is 2.3 h.

On to `CC(C)Oc1cc2nn(C34COC(CF)(C3)C4)cc2cc1C(=O)Nc1cccn([C@H]2C[C@H]2F)c1=O` [Example 52, N-(1-((1S,2R)-2-fluorocyclopropyl)-2-oxo-1,2-dihydropyridin-3-yl)-2-(1-(fluoromethyl)-2-oxabicyclo[2.1.1]hexan-4-yl)-6-isopropoxy-2H-indazole-5-carboxamide], for which, on IRAK4, the concentration for half-maximal inhibition (IC50) came to 200 pM. Moreover, the efflux ratio at 120 min, 1 μM on MDR1 came out at 5.16. The solubility at 24 h in series [2] is 38.4 µg/mL (≈ 79.3 µM). The Kp in series [3] was 0.3. For the same molecule, the “IRAK4 SPR binding Half Life” value in series [4] is 1.18 h.

In the case of `CC(C)Oc1cc2nn(C34COC(CF)(C3)C4)cc2cc1C(=O)Nc1cccn([C@@H]2C[C@@H]2C)c1=O` [Example 81, 2-(1-(fluoromethyl)-2-oxabicyclo[2.1.1]hexan-4-yl)-6-isopropoxy-N-(1-((1R,2S)-2-methylcyclopropyl)-2-oxo-1,2-dihydropyridin-3-yl)-2H-indazole-5-carboxamide], on IRAK4, the IC50 turned out to be 37000 pM. Also, the “MDR1-MDCK_Efflux Ratio” value in series [1] came out at 1.95.

With `CC12CC(n3cc4cc(C(=O)Nc5cccn([C@H]6C[C@H]6F)c5=O)c(OC5CC5)nc4n3)(CO1)C2` [Example 85, 6-cyclopropoxy-N-(1-((1S,2R)-2-fluorocyclopropyl)-2-oxo-1,2-dihydropyridin-3-yl)-2-(1-methyl-2-oxabicyclo[2.1.1]hexan-4-yl)-2H-pyrazolo[3,4-b]pyridine-5-carboxamide], on IRAK4, the IC50 was found to be 200 pM. In addition, at MDR1, the efflux ratio at 120 min, 1 μM came to 7.21. This molecule also yielded a solubility at 24 h in series [2] of 20.1 µg/mL (≈ 43.2 µM). In addition, in series [3], the Kp is 0.3. For the same molecule, the “IRAK4 SPR binding Half Life” value in series [4] turned out to be 0.8 h.

With `C[C@@H]1C[C@@H]1n1cccc(NC(=O)c2cc3cn(C45COC(CF)(C4)C5)nc3nc2OC2CC2)c1=O` [Example 92], the IC50 at IRAK4 came out at 1700 pM. In addition, in series [1], the “MDR1-MDCK_Efflux Ratio” value was determined as 5.77. The “Solubility pH 6.8” value in series [2] is on record as 12.8 ug/mL.
